“And” between values parts separate entries of the source, which are not always exact repeats. Equal entries are not always repeated. No end group written: not given here.
Columns and labels:
[1] = biological target: T1, HLA-E*01:03 (Homo sapiens, UniProt P13747); test: HLA-E/peptide cell-surface stabilization (binding) assay, RMA-S cells transfected with HLA-E*01:03; assay type: cell-based; set-up: RMA-S cells expressing HLA-E*01:01 and E*01:03 were generated by transfecting the genes into the RMA-S cell line; expressed in transfected cells; host or cells: murine TAP-deficient RMA-S cells; details: for Cell-Surface Stabilization Index E*01:03 ± SD: RMA-S cells with HLA-E*01:03 and human β2-microglobulin, overnight 26 °C, peptide 1 h 26 °C, 3 h 37 °C, peptide 100 μg/ml, Index = (Sample 37 °C – No peptide 37 °C)/(Sample 26 °C – No peptide 26 °C), mean ± SD n=3
Procedure: (§1) Binding of PM9 to both HLA-E*01:01 and –E*01:03 alleles was assessed using an HLA-E/peptide cell-surface stabilization assays. Thus, murine RMA-S cells deficient in transporter associated with antigen processing (TAP) were stably transfected with one of the two HLA-E alleles together with human β2-microglobuline. Then, stabilization of HLA-E/PM9 and HLA-E/VL9 complexes was compared in peptide-titration analyses using peptide concentrations ranging from 0.01 μg/ml to 100 μg/ml by growing transfected RMA-S cells overnight at 26 °C, pulsing them with peptide for 1 h and transferring them to 37 °C for 3 additional hours. Weak half-maximal effective concentrations (EC50) of over 100 μM were indicated for the interaction of PM9 with the two HLA-E*01:01 and E*01:03 molecules (Fig. 1A).

[2] = biological target: T2, HLA-E*01:01 (Homo sapiens, UniProt P13747, G128R); test: HLA-E/peptide cell-surface stabilization (binding) assay, RMA-S cells transfected with HLA-E*01:01; assay type: cell-based; set-up: RMA-S cells expressing HLA-E*01:01 and E*01:03 were generated by transfecting the genes into the RMA-S cell line; expressed in transfected cells; host or cells: murine TAP-deficient RMA-S cells; details: RMA-S cells with HLA-E*01:01 and human β2-microglobulin; overnight 26 °C, peptide 1 h 26 °C, 3 h 37 °C; peptide 100 μg/ml; Index = (Sample 37 °C – No peptide 37 °C)/(Sample 26 °C – No peptide 26 °C); flow cytometry
Procedure: as §1

[3] = test system: Mamu-E*02:04; test: Single-chain peptide-β2-microglobulin-MHC-E trimer stabilization assay, HEK 293T cells, Mamu-E*02:04; assay type: cell-based, rhesus macaque (Macaca mulatta); details: transiently transfected HEK 293T cells; mAb 4D12
Source text: (§2) The chimeric genes coding for the single-chain peptide-β2-microblobuline-MHC-E trimers were constructed as described previously. Briefly, the DNA fragment coding the tested peptide was inserted downstream of the fragment coding for the signal sequence of HLA-E*01:01 followed by coding sequences for a flexible linker [G4S]4, β2-microglobulin and the desired heavy chain of MHC-E. […] to accommodate for the flexible linker. The assembled plasmids were then transfected into HEK 293 T cells maintained between 10% and 90% confluency at 37 °C, 5% CO2 in DMEM (Life Technologies) supplemented with 10% FBS (SeraLabs), and 50 units/ml Penicillin/50 μg/ml Streptomycin (Life Technologies). Transfections were carried out in 6-well plates using GeneJuice (Millipore) as per the manufacturer’s instructions.
(§3) To further confirm PM9-interaction with the MHC-E molecules, we employed an assay based on cell-surface stabilization of single-chain peptide-β2-microblobuline-MHC-E trimers. Briefly, a DNA fragment coding for the tested peptide, here PM9, was inserted downstream of an HLA-E leader peptide and was followed by flexible [G4S]4 linker, β2-microblobuline and Y84 A point-mutated MHC-E heavy chain, which accommodated the flexible linker (Fig. 1B left). […]

[4] = biological target: T1, HLA-E*01:03; test: Single-chain peptide-β2-microglobulin-MHC-E trimer stabilization assay, HEK 293T cells, HLA-E*01:03; assay type: cell-based; set-up: expressed in transfected cells; details: transiently transfected HEK 293T cells; for HLA-E*01:03 single-chain trimer surface stabilization: mAb 3D12, compared with VL9 and irrelevant peptide
Source text: as §2
To further confirm PM9-interaction with the MHC-E molecules, we employed an assay based on cell-surface stabilization of single-chain peptide-β2-microblobuline-MHC-E trimers. Briefly, a DNA fragment coding for the tested peptide, here PM9, was inserted downstream of an HLA-E leader peptide and was followed by flexible [G4S]4 linker, β2-microblobuline and Y84 A point-mutated MHC-E heavy chain, which accommodated the flexible linker (Fig. 1B left). […] From these experiments, we concluded that the PM9 peptide bound to HLA-E molecules, and stabilized and increased the HLA-E expression on the cell surface.
Fig. 2 Identification of HLA-E-binding peptides in a single-chain trimer stabilization assay. A single chain peptide-β2-microglobuline-MHC-E heavy chain trimer stabilization assay was employed to determine the candidate 9-mer peptide binding to HLA-E*01:03 (brown line) and compared to that induced by VL9 (yellow area) and irrelevant (pink area) peptide. Expression of trimer on transiently transfected into HEK 293T cells was assessed using a […] 3D12 mAb in flow cytometry. Please see gating strategy in Fig. S3.

[5] = biological target: T2, HLA-E*01:01; test: Single-chain peptide-β2-microglobulin-MHC-E trimer stabilization assay, HEK 293T cells, HLA-E*01:01; assay type: cell-based; set-up: expressed in transfected cells; details: transiently transfected HEK 293T cells; mAb 3D12
Source text: as §2, §3

[6] = biological target: T1, HLA-E*01:03; details: summary of both assays
[7] = test system: CD8+ HC092 STCL cells; assay type: cell-based, human; details: PM9-pulsed LCL721.221 HLA-B*18:01 transfectant; volunteer 410
Procedure: Cryopreserved PBMCs were thawed and cultures set up at 1–3 × 10^6 cells/ml in culture medium containing 1.5 μg/ml 15-mer ‘parental’ peptide and 25 ng/ml IL-7 (R & D Systems). Cultures were supplemented with 100 IU/ml IL-2 (R&D Systems) on day 3, and IL-2 plus fresh culture medium on day 7. On day 10, the cells were washed three times with culture medium, re-suspended in 1 ml of medium and placed at 37 °C, 5% CO2 for 48 h to rest prior to the ICS assay.
LCL 721.221 cell lines expressing a single HLA allele were prepulsed with corresponding peptides, added to the STCLs in a 96-well plate at 37 °C for 2 h. […]
The first-generation candidate T-cell vaccine against HIV-1 employing conserved regions of the HIV-1 proteome was tested in HIV-1-negative adults in trial HIV−CORE 002 and induced robust HIV-1-specific T-cell responses. These responses were detected by pools of 15-mer peptides overlapping by 11 amino acids across the full length of the HIV-1-derived vaccine immunogen. […] In particular, HLA restriction was determined by expanding volunteer’s PBMC with stimulatory ‘parental’ peptide […] […]

[8] = test system: CD8+ T cells of HIV-1-infected patients; test: Search for PM9-specific HLA-E-restricted CD8+ T-cell responses in natural HIV-1 infection; assay type: cell-based, human; details: PBMC of 32 treatment-naïve patients chronically infected with HIV-1; barely detectable response
Source text: Cryopreserved PBMCs from 32 treatment-naïve Japanese individuals chronically infected with HIV-1 subtype B were recruited from the National Center for Global Health and Medicine. All volunteers gave written informed consent before participation. The study was approved by the ethics committees of Kumamoto University and the National Center for Global Health and Medicine. Informed consent was obtained from all individuals according to the Declaration of Helsinki. Plasma and PBMCs were separated from whole blood. HLA types of the individuals were determined by standard sequence-based genotyping.
So far, we were unable to confirm existence of vaccine- or natural HIV-1 infection-elicited CD8^+ T lymphocytes recognizing HIV-1-derived peptides through their TCR and this is not for lack of trying. […] Since humans infected with M. tuberculosis have readily detectable CD8^+ T cells specific for HLA-E-presented M. tuberculosis peptides, perhaps search for such HLA-E-restricted HIV-1-specific CD8 T cells in dually HIV-1- and M. tuberculosis co-infected individuals might yield some interesting results.

VMAPRTLVL [VL9, reference compound] was tested, and the “Cell-Surface Stabilization Index E*01:03/VL9” value ([1]; VL9 (VMAPRTLVL) positive control of the experimental day, RMA-S cells with HLA-E*01:03) was 2.572 and 2.369 and 2.600 and 2.281.
For “TEEKIKALTEICKEM [C182, tHIVconsvX 15-mer peptide […]]”, the “Cell-Surface Stabilization Index E*01:01” value [2] was 0.33 and the “Cell-Surface Stabilization Index E*01:03 ± SD” value [1] was 0.463 ± 0.085.
With GHQAAMQMLKDTINE the “Cell-Surface Stabilization Index E*01:01” value [2] was 0.27 and the “Cell-Surface Stabilization Index E*01:03 ± SD” value [1] was 0.455 ± 0.033.
With “VYYRDSRDPIWKGPA [C376, tHIVconsvX 15-mer peptide […]]” the “Cell-Surface Stabilization Index E*01:01” value [2] was 0.22 and the “Cell-Surface Stabilization Index E*01:03 ± SD” value [1] was 0.366 ± 0.044.
In the case of “VYYRDSRDPLWKGPA [C377, tHIVconsvX 15-mer peptide […]]”, the “Cell-Surface Stabilization Index E*01:01” value [2] is reported as 0.17 and the “Cell-Surface Stabilization Index E*01:03 ± SD” value [1] is reported as 0.353 ± 0.039.
With “QMAVFIHNFKRKGGI [C352, tHIVconsvX 15-mer peptide […]]” the “Cell-Surface Stabilization Index E*01:01” value [2] was 0.26 and the “Cell-Surface Stabilization Index E*01:03 ± SD” value [1] was 0.641 ± 0.051.
For IVRMYSPTSILDIKQ, the “Cell-Surface Stabilization Index E*01:01” value [2] was 0.03 and the “Cell-Surface Stabilization Index E*01:03 ± SD” value [1] was 0.518 ± 0.033.
In the case of “SALSEGATPQDLNMM [C022, tHIVconsvX 15-mer peptide […]]”, the “Cell-Surface Stabilization Index E*01:01” value [2] is reported as 0.14 and the “Cell-Surface Stabilization Index E*01:03 ± SD” value [1] is reported as 0.382 ± 0.027.
In the case of TVCVIWCIH [TH9, reference compound], the “Mamu-E*02:04 single-chain trimer surface expression (MFI) relative to non-binding peptide” value [3] is reported as “non-binding”, the “HLA-E*01:03 single-chain trimer surface stabilization” value [4] is reported as “non-binding” and the “HLA-E*01:01 single-chain trimer surface expression (MFI) relative to non-binding peptide” value [5] is reported as “non-binding”.
“GHQAAMQMLKETINE [C032, tHIVconsvX 15-mer peptide […]]” was tested, and the “Cell-Surface Stabilization Index E*01:01” value [2] was 0.16 and the “Cell-Surface Stabilization Index E*01:03 ± SD” value [1] was 0.480 ± 0.057.
In the case of “INEEAAEWDRLHPVH [C038, tHIVconsvX 15-mer peptide […]]”, the “Cell-Surface Stabilization Index E*01:01” value [2] is reported as 0.20 and the “Cell-Surface Stabilization Index E*01:03 ± SD” value [1] is reported as 0.389 ± 0.039.
In the case of “PQDLNMMLNIVGGHQ [C026, tHIVconsvX 15-mer peptide […]]”, the “Cell-Surface Stabilization Index E*01:01” value [2] is reported as 0.25 and the “Cell-Surface Stabilization Index E*01:03 ± SD” value [1] is reported as 0.429 ± 0.037.
In the case of “QMAVLIHNFKRRGGI [C353, tHIVconsvX 15-mer peptide […]]”, the “Cell-Surface Stabilization Index E*01:01” value [2] is reported as 0.17 and the “Cell-Surface Stabilization Index E*01:03 ± SD” value [1] is reported as 0.632 ± 0.065.
With “INEEAAEWDRVHPVH [C037, tHIVconsvX 15-mer peptide […]]” the “Cell-Surface Stabilization Index E*01:01” value [2] was 0.30 and the “Cell-Surface Stabilization Index E*01:03 ± SD” value [1] was 0.419 ± 0.031.
NEEAAEWDR [NR9] was tested, and the “HLA-E binder classification across the SCT assay and the LCL721.221-HLA-E*01:03 assay (MFI over 4000)” value [6] was “positive stabilization signal in at least one of the two employed assays”.
“YFSVPLDESFRKYTA [C226, tHIVconsvX 15-mer peptide […]]” was tested, and the “Cell-Surface Stabilization Index E*01:01” value [2] was −0.15 and the “Cell-Surface Stabilization Index E*01:03 ± SD” value [1] was 0.669 ± 0.010.
In the case of PEIVIYQYM [PM9], the “Mamu-E*02:04 single-chain trimer surface expression (MFI) relative to non-binding peptide” value [3] is reported as “increased the mean fluorescent intensity (MFI) relative to a non-binding peptide”, the “IFN-γ production by CD8+ HC092 STCL cells” value [7] is reported as 28.3% and the “HLA-E*01:03 single-chain trimer MFI relative to VL9 MFI” value ([4]; highest increase of the three MHC-E molecules) is reported as “approximately half of the VL9 MFI”. The “HLA-E*01:03 single-chain trimer surface stabilization” value [4] was “increased the mean fluorescent intensity (MFI) relative to a non-binding peptide”, the “HLA-E binder classification across the SCT assay and the LCL721.221-HLA-E*01:03 assay (MFI over 4000)” value [6] was “both the SCT assay and over 4000 MFI in the LCL721.221-HLA-E*01:03 assay” and the “HLA-E*01:01 single-chain trimer surface expression (MFI) relative to non-binding peptide” value [5] was “increased the mean fluorescent intensity (MFI) relative to a non-binding peptide”. For the same sequence, the “Cell-Surface Stabilization Index E*01:03/PM9” value ([1]; PM9 positive control of the experimental day, RMA-S cells with HLA-E*01:03) was 0.658 and 0.733 and 0.617 and 0.620 and the “PM9-specific HLA-E-restricted CD8+ T-cell responders” value [8] was “one possible responder out of 32 patients”.
For QMAVFIHNF [QF9], the “HLA-E binder classification across the SCT assay and the LCL721.221-HLA-E*01:03 assay (MFI over 4000)” value [6] was “positive stabilization signal in at least one of the two employed assays”.
With “PQDLNTMLNTVGGHQ [C025, tHIVconsvX 15-mer peptide […]]” the “Cell-Surface Stabilization Index E*01:01” value [2] was 0.32 and the “Cell-Surface Stabilization Index E*01:03 ± SD” value [1] was 0.431 ± 0.038.
For “YFSVPLDKDFRKYTA [C227, tHIVconsvX 15-mer peptide […]]”, the “Cell-Surface Stabilization Index E*01:01” value [2] was 0.21 and the “Cell-Surface Stabilization Index E*01:03 ± SD” value [1] was 0.618 ± 0.042.

Reference: article PMC6291738, “Identification of novel HIV-1-derived HLA-E-binding peptides” (Immunology Letters, 2018)
